# In patent US20240116892A1, “HETEROCYCLIC AMIDE AND UREA COMPOUNDS AS JAK2 INHIBITORS” (Ajax Therapeutics, Inc., priority 2022, published 2024):
# Biological target: JAK2 (JH1 domain-catalytic, Y1007F, Y1008F) kinase (Homo sapiens (Human), UniProt O60674, Y1007F/Y1008F)
# Experiment: JAK2 JH1 Domain Binding Assay
# Settings: qPCR readout
# Summary of the method: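 Competitive binding format: test compound, DNA-tagged JAK2 JH1 (Y1007F/Y1008F; HEK293-expressed NFkB fusion) and ligand-coated magnetic beads incubated 1 h at room temperature. Kinase retained on beads released with 0.5 μmol/L non-biotinylated ligand, then measured by qPCR.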
# JAK2 (JH1 domain-catalytic, Y1007F, Y1008F) kinase, sequence (O60674 849-1124 Y1007F/Y1008F): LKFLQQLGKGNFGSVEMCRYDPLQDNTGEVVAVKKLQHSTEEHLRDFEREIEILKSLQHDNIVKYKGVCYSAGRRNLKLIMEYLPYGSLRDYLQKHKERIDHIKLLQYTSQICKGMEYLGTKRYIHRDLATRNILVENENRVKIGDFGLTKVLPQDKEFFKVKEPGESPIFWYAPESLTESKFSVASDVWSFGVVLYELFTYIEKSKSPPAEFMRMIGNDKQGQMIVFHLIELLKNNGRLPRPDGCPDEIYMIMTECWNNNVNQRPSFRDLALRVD
row,SMILES,Kd
1,"CN(C(=O)Nc1cc(C(F)(F)F)cn(C)c1=O)[C@H]1CCN(c2cnc3[nH]c(=O)[nH]c3c2)C[C@H]1F [Example I-100-a, 1-((3R,4S)-3-fluoro-1-(2-oxo-2,3-dihydro-1H-imidazo[4,5-b]pyridin-6-yl)piperidin-4-yl)-1-methyl-3-(1-methyl-2-oxo-5-(trifluoromethyl)-1,2-dihydropyridin-3-yl)urea]",< 10 nM
2,"CN(C(=O)Nc1cc(C(F)(F)F)cn(C)c1=O)[C@@H]1CCN(c2cnc3[nH]c(=O)[nH]c3c2)C[C@@H]1F [Example I-100-b, 1-((3S,4R)-3-fluoro-1-(2-oxo-2,3-dihydro-1H-imidazo[4,5-b]pyridin-6-yl)piperidin-4-yl)-1-methyl-3-(1-methyl-2-oxo-5-(trifluoromethyl)-1,2-dihydropyridin-3-yl)urea]",< 10 nM
3,"CN(C(=O)Nc1cc(C(F)(F)F)cn(C)c1=O)[C@@H]1CCN(c2cnc3[nH]nc(OC4COC4)c3c2)C[C@@H]1F [Example I-101-a, 1-((3S,4R)-3-fluoro-1-(3-(oxetan-3-yloxy)-1H-pyrazolo[3,4-b]pyridin-5-yl)piperidin-4-yl)-1-methyl-3-(1-methyl-2-oxo-5-(trifluoromethyl)-1,2-dihydropyridin-3-yl)urea]",1000 to 5000 nM
4,"CN(C(=O)Nc1cc(C(F)(F)F)cn(C)c1=O)[C@H]1CCN(c2cnc3[nH]nc(OC4COC4)c3c2)C[C@H]1F [Example I-101-b, 1-((3R,4S)-3-fluoro-1-(3-(oxetan-3-yloxy)-1H-pyrazolo[3,4-b]pyridin-5-yl)piperidin-4-yl)-1-methyl-3-(1-methyl-2-oxo-5-(trifluoromethyl)-1,2-dihydropyridin-3-yl)urea]",1000 to 5000 nM
5,"CN(C(=O)Nc1cc(C(F)(F)F)cn(C)c1=O)[C@@H]1CCN(c2cnc3[nH]nc(OC[C@H]4COCCO4)c3c2)C[C@@H]1F [Example I-102-a, 1-((3S,4R)-1-(3-(((R)-1,4-dioxan-2-yl)methoxy)-1H-pyrazolo[3,4-b]pyridin-5-yl)-3-fluoropiperidin-4-yl)-1-methyl-3-(1-methyl-2-oxo-5-(trifluoromethyl)-1,2-dihydropyridin-3-yl)urea]",< 10 nM
6,"CN(C(=O)Nc1cc(C(F)(F)F)cn(C)c1=O)[C@H]1CCN(c2cnc3[nH]nc(OC[C@H]4COCCO4)c3c2)C[C@H]1F [Example I-102-b, 1-((3R,4S)-1-(3-(((R)-1,4-dioxan-2-yl)methoxy)-1H-pyrazolo[3,4-b]pyridin-5-yl)-3-fluoropiperidin-4-yl)-1-methyl-3-(1-methyl-2-oxo-5-(trifluoromethyl)-1,2-dihydropyridin-3-yl)urea]",< 10 nM
7,"CN(C(=O)Nc1cc(C(F)(F)F)cn(C)c1=O)[C@H]1CCN(c2cnc3[nH]c(=O)n(C)c3c2)C[C@H]1F [Example I-103-a, 1-((3R,4S)-3-fluoro-1-(1-methyl-2-oxo-2,3-dihydro-1H-imidazo[4,5-b]pyridin-6-yl)piperidin-4-yl)-1-methyl-3-(1-methyl-2-oxo-5-(trifluoromethyl)-1,2-dihydropyridin-3-yl)urea]",< 10 nM
8,"CN(C(=O)Nc1cc(C(F)(F)F)cn(C)c1=O)[C@@H]1CCN(c2cnc3[nH]c(=O)n(C)c3c2)C[C@@H]1F [Example I-103-b, 1-((3S,4R)-3-fluoro-1-(1-methyl-2-oxo-2,3-dihydro-1H-imidazo[4,5-b]pyridin-6-yl)piperidin-4-yl)-1-methyl-3-(1-methyl-2-oxo-5-(trifluoromethyl)-1,2-dihydropyridin-3-yl)urea]",< 10 nM
9,"COCCOc1n[nH]c2ncc(N3CC[C@@H](N(C)C(=O)Nc4cc(C(F)(F)F)cn(C)c4=O)[C@@H](F)C3)cc12 [Example I-104-a, 1-((3S,4R)-3-fluoro-1-(3-(2-methoxyethoxy)-1H-pyrazolo[3,4-b]pyridin-5-yl)piperidin-4-yl)-1-methyl-3-(1-methyl-2-oxo-5-(trifluoromethyl)-1,2-dihydropyridin-3-yl)urea]",< 10 nM
10,"COCCOc1n[nH]c2ncc(N3CC[C@H](N(C)C(=O)Nc4cc(C(F)(F)F)cn(C)c4=O)[C@H](F)C3)cc12 [Example I-104-b, 1-((3R,4S)-3-fluoro-1-(3-(2-methoxyethoxy)-1H-pyrazolo[3,4-b]pyridin-5-yl)piperidin-4-yl)-1-methyl-3-(1-methyl-2-oxo-5-(trifluoromethyl)-1,2-dihydropyridin-3-yl)urea]",< 10 nM
11,"C[C@H]1C[C@@H](N(C)C(=O)Nc2cc(C(F)(F)F)cn(C)c2=O)CCN1c1cnc2[nH]ncc2c1 [Example I-105-a, 1-methyl-1-((2S,4S)-2-methyl-1-(1H-pyrazolo[3,4-b]pyridin-5-yl)piperidin-4-yl)-3-(1-methyl-2-oxo-5-(trifluoromethyl)-1,2-dihydropyridin-3-yl)urea]",< 10 nM
12,"C[C@@H]1C[C@H](N(C)C(=O)Nc2cc(C(F)(F)F)cn(C)c2=O)CCN1c1cnc2[nH]ncc2c1 [Example I-105-b, 1-methyl-1-((2R,4R)-2-methyl-1-(1H-pyrazolo[3,4-b]pyridin-5-yl)piperidin-4-yl)-3-(1-methyl-2-oxo-5-(trifluoromethyl)-1,2-dihydropyridin-3-yl)urea]",< 10 nM
13,"COc1n[nH]c2ncc(N3CC[C@@H](N(C)C(=O)Nc4cc(C(F)(F)F)cn(C)c4=O)[C@@H](OC)C3)cc12 [Example I-106-a, 1-((3S,4R)-3-methoxy-1-(3-methoxy-1H-pyrazolo[3,4-b]pyridin-5-yl)piperidin-4-yl)-1-methyl-3-(1-methyl-2-oxo-5-(trifluoromethyl)-1,2-dihydropyridin-3-yl)urea]",< 10 nM
14,"COc1n[nH]c2ncc(N3CC[C@H](N(C)C(=O)Nc4cc(C(F)(F)F)cn(C)c4=O)[C@H](OC)C3)cc12 [Example I-106-b, 1-((3R,4S)-3-methoxy-1-(3-methoxy-1H-pyrazolo[3,4-b]pyridin-5-yl)piperidin-4-yl)-1-methyl-3-(1-methyl-2-oxo-5-(trifluoromethyl)-1,2-dihydropyridin-3-yl)urea]",< 10 nM
15,"CN(C(=O)Nc1cc(C(F)(F)F)cn(C)c1=O)[C@@H]1CCN(c2cnc3[nH]nc(OC4CCOCC4)c3c2)C[C@@H]1F [Example I-107-a, 1-((3S,4R)-3-fluoro-1-(3-((tetrahydro-2H-pyran-4-yl)oxy)-1H-pyrazolo[3,4-b]pyridin-5-yl)piperidin-4-yl)-1-methyl-3-(1-methyl-2-oxo-5-(trifluoromethyl)-1,2-dihydropyridin-3-yl)urea]",< 10 nM
16,"CN(C(=O)Nc1cc(C(F)(F)F)cn(C)c1=O)[C@H]1CCN(c2cnc3[nH]nc(OC4CCOCC4)c3c2)C[C@H]1F [Example I-107-b, 1-((3R,4S)-3-fluoro-1-(3-((tetrahydro-2H-pyran-4-yl)oxy)-1H-pyrazolo[3,4-b]pyridin-5-yl)piperidin-4-yl)-1-methyl-3-(1-methyl-2-oxo-5-(trifluoromethyl)-1,2-dihydropyridin-3-yl)urea]",< 10 nM
17,"COc1n[nH]c2ncc(N3CC[C@@H](N(C)C(=O)Nc4cc(C(F)(F)F)cn(C)c4=O)[C@H](OC)C3)cc12 [Example I-108-a, 1-((3R,4R)-3-methoxy-1-(3-methoxy-1H-pyrazolo[3,4-b]pyridin-5-yl)piperidin-4-yl)-1-methyl-3-(1-methyl-2-oxo-5-(trifluoromethyl)-1,2-dihydropyridin-3-yl)urea]",10 to 50 nM
18,"COc1n[nH]c2ncc(N3CC[C@H](N(C)C(=O)Nc4cc(C(F)(F)F)cn(C)c4=O)[C@@H](OC)C3)cc12 [Example I-108-b, 1-((3S,4S)-3-methoxy-1-(3-methoxy-1H-pyrazolo[3,4-b]pyridin-5-yl)piperidin-4-yl)-1-methyl-3-(1-methyl-2-oxo-5-(trifluoromethyl)-1,2-dihydropyridin-3-yl)urea]",10 to 50 nM
19,"CO[C@@H]1CN(c2cnc3[nH]ncc3c2)CC[C@H]1N(C)C(=O)Nc1cc(C(F)(F)F)cn(C)c1=O [Example I-109-a, 1-((3R,4R)-3-methoxy-1-(1H-pyrazolo[3,4-b]pyridin-5-yl)piperidin-4-yl)-1-methyl-3-(1-methyl-2-oxo-5-(trifluoromethyl)-1,2-dihydropyridin-3-yl)urea]",10 to 50 nM
20,"CO[C@H]1CN(c2cnc3[nH]ncc3c2)CC[C@@H]1N(C)C(=O)Nc1cc(C(F)(F)F)cn(C)c1=O [Example I-109-b, 1-((3S,4S)-3-methoxy-1-(1H-pyrazolo[3,4-b]pyridin-5-yl)piperidin-4-yl)-1-methyl-3-(1-methyl-2-oxo-5-(trifluoromethyl)-1,2-dihydropyridin-3-yl)urea]",10 to 50 nM
21,"COCc1cc2nc(N3CC[C@@H](N(C)C(=O)Nc4cc(C(F)(F)F)cn(C)c4=O)C(F)(F)C3)cnc2[nH]1 [Example I-110-a, (R)-1-(3,3-difluoro-1-(6-(methoxymethyl)-5H-pyrrolo[2,3-b]pyrazin-2-yl)piperidin-4-yl)-1-methyl-3-(1-methyl-2-oxo-5-(trifluoromethyl)-1,2-dihydropyridin-3-yl)urea]",< 10 nM
22,"COCc1cc2nc(N3CC[C@H](N(C)C(=O)Nc4cc(C(F)(F)F)cn(C)c4=O)C(F)(F)C3)cnc2[nH]1 [Example I-110-b, (S)-1-(3,3-difluoro-1-(6-(methoxymethyl)-5H-pyrrolo[2,3-b]pyrazin-2-yl)piperidin-4-yl)-1-methyl-3-(1-methyl-2-oxo-5-(trifluoromethyl)-1,2-dihydropyridin-3-yl)urea]",< 10 nM
23,"COCc1cc2nc(N3CC[C@@H](N(C)C(=O)Nc4cc(C(F)(F)F)cn(C)c4=O)[C@@H](F)C3)cnc2[nH]1 [Example I-111-a, 1-((3S,4R)-3-fluoro-1-(6-(methoxymethyl)-5H-pyrrolo[2,3-b]pyrazin-2-yl)piperidin-4-yl)-1-methyl-3-(1-methyl-2-oxo-5-(trifluoromethyl)-1,2-dihydropyridin-3-yl)urea]",< 10 nM
24,"COCc1cc2nc(N3CC[C@H](N(C)C(=O)Nc4cc(C(F)(F)F)cn(C)c4=O)[C@H](F)C3)cnc2[nH]1 [Example I-111-b, 1-((3R,4S)-3-fluoro-1-(6-(methoxymethyl)-5H-pyrrolo[2,3-b]pyrazin-2-yl)piperidin-4-yl)-1-methyl-3-(1-methyl-2-oxo-5-(trifluoromethyl)-1,2-dihydropyridin-3-yl)urea]",< 10 nM
